Measurements reported in patent US10501451B2, “Selective NR2B antagonists” (BRISTOL-MYERS SQUIBB COMPANY, priority 2015, dated 2019).

What was measured:
mice = test: Mouse Forced Swim Test (mFST); format: in vivo; conditions: 1 mg/Kg i.v., 15 min before 6 min swim session
Protocol: Mouse Forced Swim Test (mFST). Forced Swim Test (FST) is an animal model used to assess antidepressant compounds in preclinical studies. The FST was performed similar to the method of Porsolt et al. with modifications (Porsolt R D, Bertin A, Jalfre M. Behavioral despair in mice: a primary screening test for antidepressants. Arch Int Pharmacodyn Thér 1977; 229:327-36). In this paradigm, mice are forced to swim in an inescapable cylinder filled with water. Under these conditions, mice will initially try to escape and eventually develop immobility behavior; this behavior is interpreted as a passive stress-coping strategy or depression-like behavior. […] The duration of immobility was evaluated during the total 6 min of the test and expressed as duration (sec) of immobility. […] All testing sessions were recorded with a video camera (Sony Handicam, Model: DCR-HC38E; PAL) and scoring was done using the Forced Swim Scan, Version 2.0 software (Clever Systems Inc., Reston, Va., USA; see Hayashi E, Shimamura M, Kuratani K, Kinoshita M, Hara H. Automated experimental system capturing three behavioral components during murine forced swim test. Life Sci. 2011 Feb. 28; 88(9-10):411-7 and Yuan P, Tragon T, Xia M, Leclair C A, Skoumbourdis A P, Zheng W, Thomas C J, Huang R, Austin C P, Chen G, Guitart X. Phosphodiesterase 4 inhibitors enhance sexual pleasure-seeking activity in rodents. […]

hERG channels = hERG channels (Homo sapiens (Human), UniProt Q12809); test: hERG electrophysiology assay (patch clamp); format: cell-based; conditions: HEK 293 cells stably expressing hERG channels, tail current
hERG channels, sequence (Q12809 whole entry, the tested form may be a part): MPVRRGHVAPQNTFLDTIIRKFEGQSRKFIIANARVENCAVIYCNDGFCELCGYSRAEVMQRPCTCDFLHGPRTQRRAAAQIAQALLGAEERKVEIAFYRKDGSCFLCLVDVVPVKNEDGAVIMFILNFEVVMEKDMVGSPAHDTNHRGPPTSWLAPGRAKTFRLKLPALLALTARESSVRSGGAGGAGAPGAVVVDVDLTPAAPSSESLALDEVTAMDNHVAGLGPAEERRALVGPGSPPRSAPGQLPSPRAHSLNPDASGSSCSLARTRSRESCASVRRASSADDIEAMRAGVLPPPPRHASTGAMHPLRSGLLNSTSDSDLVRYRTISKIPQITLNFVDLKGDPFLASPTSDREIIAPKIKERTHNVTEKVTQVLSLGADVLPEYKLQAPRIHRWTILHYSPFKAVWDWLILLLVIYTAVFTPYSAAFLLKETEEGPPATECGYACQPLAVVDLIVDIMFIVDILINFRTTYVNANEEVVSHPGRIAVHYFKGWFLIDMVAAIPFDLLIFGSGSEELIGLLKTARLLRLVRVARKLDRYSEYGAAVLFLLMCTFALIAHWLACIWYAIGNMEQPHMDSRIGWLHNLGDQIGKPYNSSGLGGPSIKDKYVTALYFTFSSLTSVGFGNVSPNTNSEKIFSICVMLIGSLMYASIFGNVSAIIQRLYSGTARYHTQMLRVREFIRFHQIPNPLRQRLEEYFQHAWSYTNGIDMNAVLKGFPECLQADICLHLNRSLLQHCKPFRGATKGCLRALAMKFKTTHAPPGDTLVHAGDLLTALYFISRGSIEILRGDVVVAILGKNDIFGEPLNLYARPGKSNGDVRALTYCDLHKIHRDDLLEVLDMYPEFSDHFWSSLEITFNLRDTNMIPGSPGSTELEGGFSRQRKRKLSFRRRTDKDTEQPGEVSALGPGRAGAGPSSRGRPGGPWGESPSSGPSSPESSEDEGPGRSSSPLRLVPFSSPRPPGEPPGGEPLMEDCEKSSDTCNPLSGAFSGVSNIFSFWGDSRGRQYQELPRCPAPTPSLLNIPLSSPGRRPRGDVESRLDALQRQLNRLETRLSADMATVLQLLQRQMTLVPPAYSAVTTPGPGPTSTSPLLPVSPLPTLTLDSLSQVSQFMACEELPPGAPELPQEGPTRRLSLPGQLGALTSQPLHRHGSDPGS
Protocol: hERG Electrophysiology Assay. The experimental compounds were assessed for hERG activity on HEK 293 cells stably expressing hERG channels using patch clamp technique. Coverslips plated with hERG expressing cells were placed in the experimental chamber and were perfused with a solution composed of (in mM): 140 NaCl, 4 KCl, 1.8 CaCl2, 1 MgCl2, 10 Glucose, 10 HEPES (pH 7.4, NaOH) at room temperature. Borosilicate patch pipettes had tip resistances of 2-4 Mohms when filled with an internal solution containing: 130 KCl, 1 MgCl2, 1 CaCl2, 10 EGTA, 10 HEPES, 5 ATP-K2 (pH 7.2, KOH). The cells were clamped at −80 mV in whole cell configuration using an Axopatch 200B (Axon instruments, Union City, Calif.) patch clamp amplifier controlled by pClamp (Axon instruments) software. […] First, tail currents were recorded in presence of extracellular solution alone (control) and subsequently, in extracellular solution containing increasing compound concentrations. […] The percentage inhibition at each concentration was calculated as reduction in peak tail current with respect to the peak tail current recorded in the presence of control solution. […]

Q: With `Cc1ccc(CN2OCC(N3CCN(c4ccc(O)cn4)CC3)C2=O)cc1` (single isomer, unassigned) [Example 10, P-1, 4-(4-(5-hydroxypyridin-2-yl)piperazin-1-yl)-2-(4-methylbenzyl)isoxazolidin-3-one] as the molecule, how does the immobility time (mice) read?
A: statistically significant decrease

Q: What about the IC50 (hERG channels) of the same molecule?
A: 30 µM
